Reference: publication PMC7700685 (International Journal of Molecular Sciences, 2020)
“And” between values parts separate entries of the source, which are not always exact repeats. Equal entries are not always repeated. “Also recorded” adds a separate entry of the source. Where two headings read alike, the source gives them in different places.

Tests used:
[1] = biological target: T1, MTH1 (Homo sapiens, UniProt P36639); test: MTH1 enzymatic inhibition assay (PPiLight inorganic pyrophosphate bioluminescent assay); format: biochemical; conditions: substrate dGTP 100 uM, recombinant MTH1 0.5 nM; for IC50: read-out: IC50 inhibiting MTH1 hydrolase activity
Description: (§1) The enzymatic hydrolysis of dGTP by purified human recombinant MTH1 to form dGMP and pyrophosphate was applied for screening purposes using a PPiLightTM inorganic pyrophosphate bioluminescent assay—according to published procedures. After shaking and color development, the plates were analyzed in a Victor 3 Microplate reader (PerkinElmer, Waltham, MA, USA) for luminescence. The inhibition assays were conducted using a series of dilutions of standard compounds and new MTH1 inhibitors. The IC50 values were determined by fitting a dose-response curve to the data points using nonlinear regression.

[2] = biological target: T1, MTH1; test: Competitive binding against [3H]TH287 in live U251MG cells; set-up: endogenous in cells; host or cells: U251MG glioblastoma cells
Description: The final concentration of the radioligand in each assay was 4 nM. […] After the reaction was completed, the cells were washed once with ice-cold PBS and the bound radioactivity was counted and analyzed as described above. Nonspecific binding was determined from cells treated with 10 µM TH086. Raclopride, a well-reported selective antagonist for dopamine D₂ receptors, was also used to validate the assay.
The values for Bns and B0 were constrained using experimentally derived values.
Data from competitive radioligand binding studies were transformed to determine the pseudo-Hill coefficient, n’H, defined as:(4) logBs/B0−Bs=n′HlogI−n′HlogIC50
n’H, which is the negative of the Hill slope, was readily determined from the plot of logBs/B0−Bs versus logI .

[3] = system: beta-tubulin; conditions: cited from earlier work
[4] = MicroPET imaging of normal mice with [11C]TH287; format: in vivo
Description: The Washington University Animal Studies Committee approved all procedures used for the mouse experiments described in the present study under ACS# 20,170,165 (approved on 9/1/2017). Overall care of the animals was consistent with The Guide for the Care and Use of Laboratory Animals from the National Research Council and the USDA Animal Care Resource Guide. Four male athymic nude mice ([…], 8 weeks old), purchased from Charles River Laboratories (Wilmington, MA, USA), were included for the preliminary microPET imaging evaluation of MTH1 in vivo. […] The imaging sessions were 1 h dynamic scans using the MicroPET® Focus 220 and Inveon scanners (Siemens Medical Solutions USA Molecular Imaging, Knoxville, TN, USA). Acquired list mode data were histogrammed into a 3D set of sinograms and binned to the following time frames: 5 × 60 s, 5 × 2 min, and 9 × 5 min. Sinogram data was then processed using a filter back-projection algorithm with attenuation and scatter corrections. […] The software Acquisition Sinogram Image PROcessing using IDL’s Virtual Machine^TM (ASIPro VM^TM) (Siemens Medical Solutions USA Molecular Imaging, Knoxville, TN, USA) was used to draw ROI and obtain the radioactivity uptake (nCi/c.c.) curve over the time course of the scan, and the uptake data were further normalized by the injected radioactivity dose to get %I.D./cc.

[5] = human; N-dealkylation of the aminomethyl substituent, major metabolite TH586; no reference given; cited from earlier work
[6] = biological target: T1, MTH1; test: Competitive inhibition (kinetics) assay of MTH1 hydrolase; format: biochemical
Description: as §1

[7] = in vitro; conditions: human
Description: (§2) MTT assays were used to test cell toxicity of compounds. […] After incubation with MTT for 4 h at 37 °C, the culture medium was aspirated and 200 µL DMSO was added to each well to dissolve the formazan crystals, then the absorbance was measured at 540 nm using a Victor 3 Microplate reader (PerkinElmer, Waltham, MA, USA).

[8] = mouse; N-dealkylation of the aminomethyl substituent, major metabolite TH586; no reference given; cited from earlier work
[9] = biological target: T1, MTH1; conditions: 'it has been reported', no reference given; cited from earlier work
[10] = system: U251MG cells; test: MTT cell viability assay; conditions: 72 h
Description: as §2

Compound: CCN1CCC[C@H]1CNC(=O)c1c(O)c(Cl)cc(Cl)c1OC [Raclopride]
- IC50 inhibiting MTH1 hydrolase activity [1]: no inhibition
- IC50 [1]: > 10000 nM
- Ki (competitive binding) ([2]; U251MG cells, 4 nM [3H]TH287, Cheng-Prusoff): No binding was detected
- Ki ([2]; read-out: Ki (competitive binding)): > 10000 nM

Compound: Nc1nc(NC2CC2)cc(-c2cccc(Cl)c2Cl)n1 [TH588]
- concentration inhibiting in vitro beta-tubulin polymerization [3]: higher than 30 µM

Compound: [11CH3]Nc1cc(-c2cccc(Cl)c2Cl)nc(N)n1 [[^11C]TH287]
- uptake and clearance from brain, heart and kidney ([4]; ~0.4 mCi via tail vein, 1 h dynamic scan): gets into the brain with rapid clearance from the brain, kidney, and heart; also recorded: high initial uptake and fast clearance; also recorded: rapid brain uptake and fast clearance

Compound: CNc1cc(-c2cccc(Cl)c2Cl)nc(N)n1 [TH287, 6-(2,3-Dichlorophenyl)-N4-methylpyrimidine-2,4-diamine]
- blood-brain barrier penetration ([4]; microPET): penetrates the blood-brain barrier of mice with a fast clearance
- metabolism in liver microsomes [5]: rapidly metabolized
- Kmapp of MTH1 ([6]; 2.5 nM TH287 present (Km 305 µM without)): 892 µM
- Ki ([6]; MTH1 0.5 nM, dGTP 0 to 5000 uM, read-out: Ki from kinetics assays): ~1.3 nM and 1.3 nM
- IC50 [1]: 2.2 nM
- concentration inhibiting in vitro beta-tubulin polymerization [3]: higher than 30 µM
- viability at 72 h, 30 µM [7]: 88.9%
- metabolism in liver microsomes [8]: rapidly metabolized
- Ki [2]: 3.04 ± 0.14 nM
- pseudo-Hill coefficient n'H ([2]; U251MG cells): 0.88 and 0.88 ± 0.06

Compound: Nc1cc(-c2cccc(Cl)c2Cl)nc(N)n1 [TH586]
- IC50 [9]: 77 nM

Compound: C[C@H](Oc1cc(-c2cnn(C3CCNCC3)c2)cnc1N)c1c(Cl)ccc(F)c1Cl [(S)-crizotinib]
- cell viability compared with vehicle control ([10]; 10 µM): 92.95%
- cell viability compared with vehicle control ([10]; 30 µM): 0.14%
